# In patent US4269831A, “Topical dermatological method of use of an androstenopyrazole” (priority 1979, dated 1981):
# What was measured:
# Assay type in all cases: in vivo
# [1] = tested on: androgen-stimulated flank organ; assay: Related experiment: androgen-stimulated flank organ in mature female and castrated immature male hamsters; details: 5 to 25 micrograms per flank organ
# Description: As shown by Table I the diameters and the wet weights of the flank organs were reduced at a dose of 5 micrograms per flank organ per day.
# [2] = tested on: hair on the back of mature male Syrian golden hamsters; assay: Reduction of hair regrowth on clipped back of hamsters; details: 200 microliters on 9 cm2, 30 daily applications, vehicle 323±49 mg
# Description: The hair on the back of mature male Syrian golden hamsters having a mean initial body weight of 107 g. (7 hamsters per group) was removed with electric clippers. The vehicle (200 microliters of ethanol) or the test solution (0.02% or 0.1% of the compound of Formula I in ethanol) was pipetted slowly to cover the entire clipped area (9 cm.^2). After 30 daily applications, the hair was clipped from the same area and the hair clippings were collected and weighed in order to measure hair regrowth. The hair weights averaged 119±15 and 109±17 mg. for hamsters treated with 0.02% and 0.1% of the compound of Formula I, respectively, compared to 323±49 mg. for vehicle-treated hamsters.
# [3] = tested on: flank organ of mature male Syrian golden hamsters; assay: Topical antiandrogenic activity in mature male hamsters, both flank organs medicated (Table I); details: mean, n=8
# Description: (§1) Each flank organ of mature male Syrian golden hamsters having a mean initial body weight of 105 g. was medicated topically with the compound of Formula I dissolved in ethanol (5 microliters) for twenty-one days. Flank organ hair was clipped three times per week to facilitate application. On the day following the last medication the hamsters were killed with an overdose of sodium pentobarbital. The flank organ parameters and the weights of seminal vesicles, adrenals and thymus glands were determined. Flank organ diameter was measured parallel to the breadth of the hamster with vernier calipers. Wet weights were obtained on flank organs excised around the periphery of the pigmented area. The topical activity of the compound of Formula I was also compared with that of 17β-hydroxy-17α-propylandrost-4-en-3-one, an antiandrogen, and hydrocortisone. In this experiment the right flank organ was treated with the test compound while vehicle-treated left flank organ served as control. […] In addition, the individual characteristics of the flank organ, elevation (thickness relative to adjacent skin), area, hair pigment, skin pigment and hair growth were all scored separately on a scale of 0 to 4.
# [4] = tested on: castrated immature male Syrian golden hamsters; assay: Systemic antiandrogenic and glucocorticoid activity, subcutaneous, with testosterone propionate (Table IV); details: mean, n=8
# Description: A solution of the compound of Formula I in cottonseed oil was administered subcutaneously at 1 ml./kg. to castrated immature male Syrian golden hamsters having a mean initial body weight of 79 g. for 14 consecutive days concurrently with testosterone propionate. On the day following the last medication the hamsters were killed, the flank organ parameters were determined and the weights of seminal vesicles, adrenals and thymus glands were obtained.
# [5] = tested on: flank organ of mature male Syrian golden hamsters; assay: Topical comparison in mature male hamsters, right flank organ treated, left flank organ vehicle (Tables II, III); details: for Flank organ Diameter, RFO / Flank organ Weight, RFO / Flank organ Development, RFO (median score): treated right flank organ; for Flank organ Diameter, RFO / Flank organ Weight, RFO: mean; for Flank organ Diameter, RFO / Flank organ Weight, RFO / Flank organ Development, RFO (median score) / Flank Organ (Mean Score) Area / Flank Organ (Mean Score) Elevation / Flank Organ (Mean Score) Hair Growth / Flank Organ (Mean Score) Hair Pigmentation / Flank Organ (Mean Score) Skin Pigmentation: n=7; for Flank organ Development, RFO (median score): scale 0 to 4 (0 barely visible, 4 as in mature male); for Flank Organ (Mean Score) Area / Flank Organ (Mean Score) Elevation / Flank Organ (Mean Score) Hair Growth / Flank Organ (Mean Score) Hair Pigmentation / Flank Organ (Mean Score) Skin Pigmentation: RFO, scale 0 to 4
# Description: as §1
# [6] = 1 μg/flank organ/day topical for 21 days
# [7] = 5 μg/flank organ/day topical for 21 days
# [8] = 25 μg/flank organ/day topical for 21 days
# [9] = 125 μg/flank organ/day topical for 21 days
# [10] = 2.5 mg/kg/day sc for 14 days with testosterone propionate 0.4 mg/kg/day
# [11] = 5 mg/kg/day sc for 14 days with testosterone propionate 0.4 mg/kg/day
structure (smiles),measurement,setting,value
"CC#C[C@]1(O)CC[C@H]2[C@@H]3C[C@H](C)C4=Cc5[nH]ncc5C[C@]4(C)[C@H]3CC[C@@]21C [Compound of Formula I, 17β-Hydroxy-6α-methyl-17α-propynyl-4-androsteno[3,2-c]-pyrazole]",Inhibition of androgen-stimulated flank organ parameters,[1],effective inhibitor of androgen-stimulated flank organ parameters
same,Systemic effects,[1],without any systemic effects
same,Hair weights (hair regrowth on clipped back area),[2]; 0.02% in ethanol,119 ± 15 mg
same,Hair weights (hair regrowth on clipped back area),[2]; 0.1% in ethanol,109 ± 17 mg
same,Flank Organ Diameter,[3]; [6],5.7 mm
same,Flank Organ Wet Weight,[3]; [6],46.5 mg
same,Organ Weights: Adrenal,[3]; [6],26.7 mg
same,Organ Weights: Seminal Vesicles,[3]; [6],288.3 mg
same,Organ Weights: Thymus,[3]; [6],57.1 mg
same,Flank Organ Diameter,[3]; [7],4.8 mm
same,Flank Organ Wet Weight,[3]; [7],36.4 mg
same,Organ Weights: Adrenal,[3]; [7],25.5 mg
same,Organ Weights: Seminal Vesicles,[3]; [7],277.6 mg
same,Organ Weights: Thymus,[3]; [7],53.2 mg
same,Flank Organ Diameter,[3]; [8],4.7 mm
same,Flank Organ Wet Weight,[3]; [8],33.4 mg
same,Organ Weights: Adrenal,[3]; [8],25.5 mg
same,Organ Weights: Seminal Vesicles,[3]; [8],270.3 mg
same,Organ Weights: Thymus,[3]; [8],53.7 mg
same,Flank Organ Diameter,[3]; [9],4.8 mm
same,Flank Organ Wet Weight,[3]; [9],30.7 mg
same,Organ Weights: Adrenal,[3]; [9],21.0 mg
same,Organ Weights: Seminal Vesicles,[3]; [9],267.3 mg
same,Organ Weights: Thymus,[3]; [9],52.8 mg
same,Final Body Weight,[4]; [10],99
same,Flank Organ Diameter,[4]; [10],4.0 mm
same,Flank Organ Wet Weight,[4]; [10],19.5 mg
same,Organ Weights: Adrenals,[4]; [10],12.7 mg
same,Organ Weights: Seminal Vesicles,[4]; [10],135 mg
same,Organ Weights: Thymus,[4]; [10],28 mg
same,Final Body Weight,[4]; [11],93
same,Flank Organ Diameter,[4]; [11],3.6 mm
same,Flank Organ Wet Weight,[4]; [11],15.0 mg
same,Organ Weights: Adrenals,[4]; [11],12.3 mg
same,Organ Weights: Seminal Vesicles,[4]; [11],107 mg
same,Organ Weights: Thymus,[4]; [11],14 mg
same,"Flank organ Diameter, RFO",[5]; 5 μg/RFO for 21 days,5.2 mm
same,"Flank organ Weight, RFO",[5]; 5 μg/RFO for 21 days,35.9 mg
same,"Flank organ Development, RFO (median score)",[5]; 5 μg/RFO for 21 days,3
same,"Flank organ Diameter, RFO",[5]; 50 μg/RFO for 21 days,5.0 mm
same,"Flank organ Weight, RFO",[5]; 50 μg/RFO for 21 days,33.2 mg
same,"Flank organ Development, RFO (median score)",[5]; 50 μg/RFO for 21 days,3
same,Dose response of flank organ inhibition,[5]; 5 and 50 μg/RFO topical for 21 days,flat dose response curve
same,Flank Organ (Mean Score) Area,[5]; 5 μg/flank organ for 21 days,3.3
same,Flank Organ (Mean Score) Elevation,[5]; 5 μg/flank organ for 21 days,3.1
same,Flank Organ (Mean Score) Hair Growth,[5]; 5 μg/flank organ for 21 days,1.4
same,Flank Organ (Mean Score) Hair Pigmentation,[5]; 5 μg/flank organ for 21 days,3.6
same,Flank Organ (Mean Score) Skin Pigmentation,[5]; 5 μg/flank organ for 21 days,3.3
same,Flank Organ (Mean Score) Area,[5]; 50 μg/flank organ for 21 days,3.0
same,Flank Organ (Mean Score) Elevation,[5]; 50 μg/flank organ for 21 days,2.6
same,Flank Organ (Mean Score) Hair Growth,[5]; 50 μg/flank organ for 21 days,0
same,Flank Organ (Mean Score) Hair Pigmentation,[5]; 50 μg/flank organ for 21 days,3.0
same,Flank Organ (Mean Score) Skin Pigmentation,[5]; 50 μg/flank organ for 21 days,3.1
